Reference: patent publication US20190309272A1, “Genetically Modified Cell Lines Including a TP53 Modification and Methods of Use” (UNIVERSITY OF SOUTH CAROLINA, priority 2018, published 2019)
Structures can show the parent of a compound that is named as a salt. Where two headings read alike, the source gives them in different places.

Key:
Format in all cases: cell-based, Human
MCF7 TP53 KO 56 E3 = assay: Drug treatment of single cell clone KO 56 E3; settings: ten day drug treatment
MCF7 TP53 KO 5.6 pool = assay: Drug screening, resazurin, TP53 KO 5.6 pool; settings: for area under the curve (AUC): KO 56 Pool, ten day drug treatment (Table 3)
MCF7 TP53 KO 56 A6 = assay: Drug treatment of single cell clone KO 56 A6; settings: ten day drug treatment
MCF7 TP53 KO 56 C5 = assay: Drug treatment of single cell clone KO 56 C5; settings: ten day drug treatment
MCF7 TP53 KO 34 D4 = assay: Drug treatment of single cell clone KO 34 D4; settings: ten day drug treatment; note: unit not given here
MCF7 TP53 KO 34 B5 = assay: Drug treatment of single cell clone KO 34 B5; settings: ten day drug treatment; note: unit not given here
MCF7 TP53 KO 56 E1 = assay: Drug treatment of single cell clone KO 56 E1; settings: ten day drug treatment; note: unit not given here
MCF7 PR WT A8 = assay: Drug treatment of single cell clone PR WT A8; settings: ten day drug treatment; note: unit not given here
MCF7 WT Parental pool = assay: Drug screening, resazurin, MCF7 wild type parental pool; settings: for area under the curve (AUC): PR WT Pool, ten day drug treatment (Table 3)
MCF7 PR WT C7 = assay: Drug treatment of single cell clone PR WT C7; settings: ten day drug treatment; note: unit not given here
MCF7 TP53 KO 56 A4 = assay: Drug treatment of single cell clone KO 56 A4; settings: ten day drug treatment
MCF7 TP53 KO 56 A5 = assay: Drug treatment of single cell clone KO 56 A5; settings: ten day drug treatment
MCF7 TP53 KO 56 A7 = assay: Drug treatment of single cell clone KO 56 A7; settings: ten day drug treatment; note: unit not given here
MCF7 TP53 KO 56 A8 = assay: Drug treatment of single cell clone KO 56 A8; settings: ten day drug treatment
MCF7 PR WT G2 = assay: Drug treatment of single cell clone PR WT G2; settings: ten day drug treatment; note: unit not given here
MCF7 TP53 KO 34 E1 = assay: Drug treatment of single cell clone KO 34 E1; settings: ten day drug treatment
MCF7 TP53 KO 3.4 pool = assay: Drug screening, resazurin, TP53 KO 3.4 pool; settings: for area under the curve (AUC): KO 34 Pool, ten day drug treatment (Table 3)
MCF7 PR WT B8 = assay: Drug treatment of single cell clone PR WT B8; settings: ten day drug treatment; note: unit not given here
[1] = ten-day drug treatment, 156.25 nM to 10 μM, resazurin fluorescence

Compound | TP53 KO 5.6 pool (AUC) (MCF7 TP53 KO 5.6 pool; [1]) | MCF7 WT Parental pool (AUC) (MCF7 WT Parental pool; [1]) | TP53 KO 3.4 pool (AUC) (MCF7 TP53 KO 3.4 pool; [1]) | further results
O=c1[nH]cc(F)c(=O)[nH]1 [Fluorouracil] | 4.286 | 6.548 | 3.782 | area under the curve (AUC) (MCF7 TP53 KO 56 E3): 1.645; area under the curve (AUC) (MCF7 TP53 KO 5.6 pool): 1.745; area under the curve (AUC) (MCF7 TP53 KO 56 A6): 1.811; area under the curve (AUC) (MCF7 TP53 KO 56 C5): 1.826; area under the curve (AUC) (MCF7 TP53 KO 34 D4): 1.812; area under the curve (AUC) (MCF7 TP53 KO 34 B5): 1.618; area under the curve (AUC) (MCF7 TP53 KO 56 E1): 1.697; area under the curve (AUC) (MCF7 PR WT A8): 2.126; area under the curve (AUC) (MCF7 WT Parental pool): 2.156; area under the curve (AUC) (MCF7 PR WT C7): 2.105; area under the curve (AUC) (MCF7 TP53 KO 56 A4): 1.716; area under the curve (AUC) (MCF7 TP53 KO 56 A5): 1.46; area under the curve (AUC) (MCF7 TP53 KO 56 A7): 1.81; area under the curve (AUC) (MCF7 TP53 KO 56 A8): 2.02; area under the curve (AUC) (MCF7 PR WT G2): 2.265; area under the curve (AUC) (MCF7 TP53 KO 34 E1): 1.945; area under the curve (AUC) (MCF7 TP53 KO 3.4 pool): 1.721; area under the curve (AUC) (MCF7 PR WT B8): 1.886
COc1ccc(C2=N[C@@H](c3ccc(Cl)cc3)[C@@H](c3ccc(Cl)cc3)N2C(=O)N2CCNC(=O)C2)c(OC(C)C)c1 [Nutlin3] |  | 3.686 |  | area under the curve (AUC) (MCF7 PR WT A8): 0.9589; area under the curve (AUC) (MCF7 WT Parental pool): 1.16; area under the curve (AUC) (MCF7 PR WT C7): 1.042; area under the curve (AUC) (MCF7 PR WT G2): 1.011; area under the curve (AUC) (MCF7 PR WT B8): 0.8828
O=C1[O][Pt]2([NH][C@@H]3CCCC[C@H]3[NH]2)[O]C1=O [Oxaliplatin] | 5.118 | 2.372 | 5.272 | area under the curve (AUC) (MCF7 TP53 KO 56 E3): 0.9635; area under the curve (AUC) (MCF7 TP53 KO 5.6 pool): 1.164; area under the curve (AUC) (MCF7 TP53 KO 56 A6): 1.243; area under the curve (AUC) (MCF7 TP53 KO 56 C5): 1.239; area under the curve (AUC) (MCF7 TP53 KO 34 D4): 1.392; area under the curve (AUC) (MCF7 TP53 KO 34 B5): 0.973; area under the curve (AUC) (MCF7 TP53 KO 56 E1): 1.208; area under the curve (AUC) (MCF7 PR WT A8): 0.7779; area under the curve (AUC) (MCF7 WT Parental pool): 0.9557; area under the curve (AUC) (MCF7 PR WT C7): 0.8311; area under the curve (AUC) (MCF7 TP53 KO 56 A4): 1.29; area under the curve (AUC) (MCF7 TP53 KO 56 A5): 1.197; area under the curve (AUC) (MCF7 TP53 KO 56 A7): 1.23; area under the curve (AUC) (MCF7 TP53 KO 56 A8): 1.229; area under the curve (AUC) (MCF7 PR WT G2): 0.8186; area under the curve (AUC) (MCF7 TP53 KO 34 E1): 1.46; area under the curve (AUC) (MCF7 TP53 KO 3.4 pool): 1.25; area under the curve (AUC) (MCF7 PR WT B8): 0.7911
CC(=O)c1c(C)c2cnc(Nc3ccc(N4CCNCC4)cn3)nc2n(C2CCCC2)c1=O [Palbociclib] | 3.234 | 3.461 | 2.923 | area under the curve (AUC) (MCF7 TP53 KO 56 E3): 1.469; area under the curve (AUC) (MCF7 TP53 KO 5.6 pool): 1.457; area under the curve (AUC) (MCF7 TP53 KO 56 A6): 1.681; area under the curve (AUC) (MCF7 TP53 KO 56 C5): 1.632; area under the curve (AUC) (MCF7 TP53 KO 34 D4): 1.826; area under the curve (AUC) (MCF7 TP53 KO 34 B5): 1.522; area under the curve (AUC) (MCF7 TP53 KO 56 E1): 1.497; area under the curve (AUC) (MCF7 PR WT A8): 2.127; area under the curve (AUC) (MCF7 WT Parental pool): 2.446; area under the curve (AUC) (MCF7 PR WT C7): 2.543; area under the curve (AUC) (MCF7 TP53 KO 56 A4): 1.846; area under the curve (AUC) (MCF7 TP53 KO 56 A5): 1.647; area under the curve (AUC) (MCF7 TP53 KO 56 A7): 1.753; area under the curve (AUC) (MCF7 TP53 KO 56 A8): 2.031; area under the curve (AUC) (MCF7 PR WT G2): 2.542; area under the curve (AUC) (MCF7 TP53 KO 34 E1): 2.274; area under the curve (AUC) (MCF7 TP53 KO 3.4 pool): 1.88; area under the curve (AUC) (MCF7 PR WT B8): 1.917
CN(N=O)C(=O)N[C@@H](C=O)[C@@H](O)[C@H](O)[C@H](O)CO [Streptozocin] | 9.912 | 9.145 | 10.58 | 
CCN(CC)CCNC(=O)c1c(C)[nH]c(/C=C2\C(=O)Nc3ccc(F)cc32)c1C [Sunitinib] | 3.758 | 3.556 | 3.076 | 
CC/C(=C(\c1ccccc1)c1ccc(OCCN(C)C)cc1)c1ccccc1 [TamoxifenCitrate] | 7.798 | 7.863 | 5.949 | 
Cn1nnc2c(C(N)=O)ncn2c1=O [Temozolomide] | 10.06 | 9.187 | 9.565 | 
COc1cc([C@@H]2c3cc4c(cc3[C@@H](O[C@@H]3O[C@@H]5CO[C@@H](c6cccs6)O[C@H]5[C@H](O)[C@H]3O)[C@H]3COC(=O)[C@H]23)OCO4)cc(OC)c1O [Teniposide] | 1.041 | 1.342 | 0.9417 | 
O=C1CCC(N2C(=O)c3ccccc3C2=O)C(=O)N1 (stereo not drawn) [Thalidomide] | 10.21 | 7.13 | 9.18 | 
S=P(N1CC1)(N1CC1)N1CC1 [Thiotepa] |  |  |  | TP53 KO 5.6 pool (AUC) (MCF7 TP53 KO 5.6 pool): 5.535; MCF7 WT Parental pool (AUC) (MCF7 WT Parental pool): 3.965; TP53 KO 3.4 pool (AUC) (MCF7 TP53 KO 3.4 pool): 5.443
CC[C@@]1(O)C(=O)OCc2c1cc1n(c2=O)Cc2cc3c(CN(C)C)c(O)ccc3nc2-1 [Topotecan Hydrochloride] | 0.8044 | 0.7919 | 0.7814 | 
CC(=O)Nc1cccc(-n2c(=O)n(C3CC3)c(=O)c3c(Nc4ccc(I)cc4F)n(C)c(=O)c(C)c32)c1 [Trametinib] | 8.533 | 7.726 | 6.641 | 
CC1=C(/C=C/C(C)=C/C=C/C(C)=C/C(=O)O)C(C)(C)CCC1 [Tretinoin] | 7.997 | 7.394 | 7.809 | 
C1CN1c1nc(N2CC2)nc(N2CC2)n1 [Triethyleneme1amine] | 2.319 | 2.223 | 2.224 | 
Oc1ncc(N(CCCl)CCCl)c(O)n1 [UracilMustard] |  |  |  | TP53 KO 5.6 pool (AUC) (MCF7 TP53 KO 5.6 pool): 9.516; MCF7 WT Parental pool (AUC) (MCF7 WT Parental pool): 9.331; TP53 KO 3.4 pool (AUC) (MCF7 TP53 KO 3.4 pool): 9.337
CCCCC(=O)OCC(=O)[C@]1(O)Cc2c(O)c3c(c(O)c2[C@@H](O[C@H]2C[C@H](NC(=O)C(F)(F)F)[C@H](O)[C@H](C)O2)C1)C(=O)c1c(OC)cccc1C3=O [Valrubicin] | 1.05 | 1.194 | 1.25 | 
COc1cc2c(Nc3ccc(Br)cc3F)ncnc2cc1OCC1CCN(C)CC1 [Vandetanib] | 3.022 | 2.871 | 2.831 | 
CCCS(=O)(=O)Nc1ccc(F)c(C(=O)c2c[nH]c3ncc(-c4ccc(Cl)cc4)cc23)c1F [Vemurafenib] | 8.365 | 8.722 | 7.987 | 
CC[C@]1(O)C[C@@H]2CN(CCc3c([nH]c4ccccc34)[C@@](C(=O)OC)(c3cc4c(cc3OC)N(C)[C@H]3[C@@](O)(C(=O)OC)[C@H](OC(C)=O)[C@]5(CC)C=CCN6CC[C@]43[C@@H]65)C2)C1 [Vinblastine Sulfate] | 1.382 | 1.393 | 1.54 | 
CC[C@]1(O)C[C@H]2CN(CCc3c([nH]c4ccccc34)[C@@](C(=O)OC)(c3cc4c(cc3OC)N(C=O)[C@H]3[C@@](O)(C(=O)OC)[C@H](OC(C)=O)[C@]5(CC)C=CCN6CC[C@]43[C@@H]65)C2)C1 [Vincristine Sulfate] | 1.54 | 1.668 | 1.776 | 
CS(=O)(=O)c1ccc(C(=O)Nc2ccc(Cl)c(-c3ccccn3)c2)c(Cl)c1 [Vismodegib] | 8.363 | 8.801 | 8.017 | 
O=C(CCCCCCC(=O)Nc1ccccc1)NO [Vorinostat] | 2.114 | 2.073 | 2.202 | 
O=P(O)(O)C(O)(Cn1ccnc1)P(=O)(O)O [Zoledronic Acid] | 9.417 | 9.222 | 9.268 | 
Arsenic Trioxide | 5.373 | 5.018 | 5.242 | 
Bleomycin Sulfate | 3.421 | 3.922 | 4.694 | 
